From patent US8629256B2, “Genetically encoded calcium indicator polypeptides and nucleic acids encoding same” (Howard Hughes Medical Institute, priority 2009, dated 2014)

Assays:
[1] = biological target: T1, histamine 1 receptor H1R (Homo sapiens, UniProt P35367); assay: H1R calcium flux fluorescence assay with GCaMP3 or small molecule dye kits; format: cell-based; details: HEK293 and HeLa cells
T1 construct: The H1R was cloned into the pCAG mammalian expression vector; expressed in transfected cells; host or cells: HEK293 and HeLa cells, transfected with pCAG-H1R (with pCAG-GCaMP3 or loaded with a dye kit)
T1 sequence (P35367 with tags, fused parts or gaps): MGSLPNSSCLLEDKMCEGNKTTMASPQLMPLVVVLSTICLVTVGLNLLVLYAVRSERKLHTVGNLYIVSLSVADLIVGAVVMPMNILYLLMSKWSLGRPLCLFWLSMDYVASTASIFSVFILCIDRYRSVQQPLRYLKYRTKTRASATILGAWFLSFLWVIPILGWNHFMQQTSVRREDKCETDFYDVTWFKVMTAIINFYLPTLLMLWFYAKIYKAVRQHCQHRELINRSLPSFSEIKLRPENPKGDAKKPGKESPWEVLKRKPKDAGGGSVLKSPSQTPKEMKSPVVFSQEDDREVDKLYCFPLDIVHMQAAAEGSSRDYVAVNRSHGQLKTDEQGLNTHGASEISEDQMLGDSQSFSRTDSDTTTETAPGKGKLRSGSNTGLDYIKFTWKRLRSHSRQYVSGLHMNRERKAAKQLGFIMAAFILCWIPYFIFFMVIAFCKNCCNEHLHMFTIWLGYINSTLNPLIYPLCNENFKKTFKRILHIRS
Experimental: The nucleic acid sequence was cloned into a mammalian expression vector driving from the CAG promoter (pCAG).
The H1R was cloned into the pCAG mammalian expression vector. […] In parallel, HEK293 cells were transfected with pCAG-H1R and incubated with either of the two best-performing small molecule dye calcium kits (the BD Calcium Kit from BD Biosciences and the FLIPR Calcium-5 Kit from Molecular Devices). […] Biophys.

[2] = test system: HEK293 cells; assay: Baseline fluorescence (brightness) of GCaMP-transfected HEK293 cells; format: cell-based, human; details: 10 μM proteasome inhibitor
Experimental: FIGS. 1A-1E show the in vitro characterization of GCaMP3. […] FIG. 1B is a schematic representation of GCaMP2 and GCaMP3. Mutated residues are shown below GCaMP3. FIG. 1C is a graph of the fluorescence spectra of GCaMP3 and GCaMP2 (1 μM protein) with 1 mM Ca^2+ or 10 mM EGTA in MOPS buffer (30 mM MOPS, 100 mM KCl, pH 7.5) (average of three independent measurements). The fluorescence intensity of each indicator was normalized to the peak of the calcium-saturated spectrum. […] FIG. 1D is a graph of the Ca^2+ titration curve (1 μM protein) in MOPS buffer. […] FIG. 1E is images (left) and a graph (right) showing the improved baseline fluorescence of GCaMP3 compared to GCaMP2. Both indicators were either transfected to HEK293 cells or virally delivered to layer 2/3 cortical neurons. Images were taken either 48 hours post-transfection or 12 days post-viral injection, then analyzed with VOLOCITY® 5.0 (Improvision Imaging Processing & Vision Co., Coventry, England). 50 μm scale bar. […]
GCaMPs in pCMV were transfected into HEK293 cells using Lipofectamine 2000 (Invitrogen, Carlsbad, Calif.), and imaging experiments were performed 48 hours post transfection. 293 cells transfected with GCaMPs in 96-well plate were imaged on an FDSS plate reader (Hamamatsu, Japan). Acetylcholine (Ach) was automatically added 10 seconds after read initiation. Brightness was quantified using VOLOCITY® 5.0 (Improvision).

Row | Compound | response-to-baseline ratio ([1]; 10 nM histamine plus antagonist, all detection methods) | inhibition of the H1R receptor ([1]; 10 nM histamine, GCaMP3 and both dye kits) | effect on baseline fluorescence of HEK293 cells expressing GCaMP2 [2]
1 | O=C(O)COCCN1CCN(C(c2ccccc2)c2ccc(Cl)cc2)CC1 (stereo not drawn) [cetirizine] | ~1.0 | near complete inhibition | 
2 | CC(=O)N[C@@H](CSC(=O)[C@]1([C@@H](O)C(C)C)NC(=O)[C@H](C)[C@@H]1O)C(=O)O [lactacystin] |  |  | increased the baseline fluorescence
